What was measured:
[1] = biological target: T1, Type-1 angiotensin II receptor A (Rattus norvegicus, UniProt P25095); test: Displacement of [125I]Sar1,Ile8-Ang2 from AT1 receptor in Wistar rat hepatic membrane; assay type: cell membranes, Liver
T1 sequence (P25095 whole entry): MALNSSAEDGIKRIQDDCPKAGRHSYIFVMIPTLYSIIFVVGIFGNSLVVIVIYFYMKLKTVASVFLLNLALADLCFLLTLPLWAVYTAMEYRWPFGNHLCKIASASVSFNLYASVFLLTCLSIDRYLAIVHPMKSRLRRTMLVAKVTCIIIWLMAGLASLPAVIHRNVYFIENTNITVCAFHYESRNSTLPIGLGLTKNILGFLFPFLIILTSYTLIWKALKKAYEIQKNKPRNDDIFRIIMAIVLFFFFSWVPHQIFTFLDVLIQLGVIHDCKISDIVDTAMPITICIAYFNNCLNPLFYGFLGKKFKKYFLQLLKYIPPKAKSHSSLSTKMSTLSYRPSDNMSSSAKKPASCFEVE

in vitro = details: human, Caco-2
Description: Permeability from apical to basolateral side of human Caco-2 cell membrane

[2] = biological target: T2, Type-1 angiotensin II receptor (Oryctolagus cuniculus, UniProt P34976); test: Antagonist activity at AT1 receptor in Ang II-contracted rabbit aortic strips after 60 mins; details: read-out: pA2 (converted)
T2 sequence (P34976 whole entry): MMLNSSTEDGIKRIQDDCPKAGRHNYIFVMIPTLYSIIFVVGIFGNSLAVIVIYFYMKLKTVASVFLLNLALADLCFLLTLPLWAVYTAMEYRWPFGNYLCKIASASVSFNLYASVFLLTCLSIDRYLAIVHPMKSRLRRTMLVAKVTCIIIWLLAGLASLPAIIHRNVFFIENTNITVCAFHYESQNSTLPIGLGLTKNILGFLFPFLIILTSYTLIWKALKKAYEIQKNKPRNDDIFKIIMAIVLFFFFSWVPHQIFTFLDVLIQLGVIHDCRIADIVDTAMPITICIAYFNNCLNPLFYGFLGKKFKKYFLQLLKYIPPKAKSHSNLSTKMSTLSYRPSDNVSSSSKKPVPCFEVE

[3] = AUC in Sprague-Dawley rat at 5 mg/kg, iv; assay type: ADME, organism-based; design: dose 5 mg/kg, route intravenous; details: plasma
[4] = AUC in Sprague-Dawley rat at 15 mg/kg, po; assay type: ADME, organism-based; design: dose 15 mg/kg, route oral; details: plasma
[5] = Half life in Sprague-Dawley rat at 5 mg/kg, iv; assay type: ADME, organism-based; design: dose 5 mg/kg, route intravenous; details: in vivo
[6] = Half life in Sprague-Dawley rat at 15 mg/kg, po; assay type: ADME, organism-based; design: dose 15 mg/kg, route oral; details: in vivo
[7] = Cmax in Sprague-Dawley rat at 5 mg/kg, iv; assay type: ADME, organism-based; design: dose 5 mg/kg, route intravenous; details: in vivo
[8] = Cmax in Sprague-Dawley rat at 15 mg/kg, po; assay type: ADME, organism-based; design: dose 15 mg/kg, route oral; details: in vivo
[9] = Tmax in Sprague-Dawley rat at 15 mg/kg, po; assay type: ADME, organism-based; design: dose 15 mg/kg, route oral; details: in vivo
[10] = Oral bioavailability in Sprague-Dawley rat at 15 mg/kg; assay type: ADME, organism-based; details: in vivo

Structure (SMILES) | IC50 [1] [nM] | further results
CCCn1nc(OCc2ccc(-c3ccccc3-c3nnn[nH]3)cc2)c2cccnc21 | 146 | –
CCCCn1nc(OCc2ccc(-c3ccccc3-c3nnn[nH]3)cc2)c2cccnc21 | 254 | –
CCCCN1C(=O)C2(CCCC2)CC(=O)N1Cc1ccc(-c2ccccc2-c2nnn[nH]2)cc1 | – | Ki [1]: 80 nM
O=C1c2cccnc2CN1Cc1ccc(-c2ccccc2-c2nn[nH]n2)cc1 | > 10000 | –
CCCCn1c(=O)c2cccnc2n1Cc1ccc(-c2ccccc2-c2nn[nH]n2)cc1 | 18 | AUC [3]: 1410 ng·h/mL; AUC [4]: 3380 ng·h/mL; half-life [5]: 60 min; half-life [6]: 54 min; Cmax [7]: 6320 ng/mL; Cmax [8]: 4100 ng/mL; Tmax [9]: 30 min; bioavailability [10]: 80%; Papp A→B (in vitro): 1.78 ×10⁻⁶ cm/s; Kb [2]: 10.5 nM
CCCN1C(=O)c2cccnc2C1Cc1ccc(-c2ccccc2-c2nn[nH]n2)cc1 (centres undefined) | > 3000 | –
CCCCn1c2nc(C)ccc2c(=O)n1Cc1ccc(-c2ccccc2-c2nn[nH]n2)cc1 | 90 | Papp A→B (in vitro): 8.7 ×10⁻⁶ cm/s
CC(C)Cn1c(=O)c2cccnc2n1Cc1ccc(-c2ccccc2-c2nn[nH]n2)cc1 | 2300 | –
CCc1nc2c(C)cc(C)nc2n1Cc1ccc(-c2c(-c3nnn[nH]3)cnc3ccccc23)cc1 | 6.9 | –
CCCC1c2ncccc2C(=O)N1Cc1ccc(-c2ccccc2-c2nn[nH]n2)cc1 (centres undefined) | 154 | –
CCCCN1C(=O)CC2(CCCC2)C(=O)N1Cc1ccc(-c2ccccc2-c2nn[nH]n2)cc1 | – | Ki [1]: 14 nM
CCCCN1C(=O)C2(CCCC2)C(=O)N1Cc1ccc(-c2ccccc2-c2nn[nH]n2)cc1 | – | Ki [1]: 25 nM
CCC1c2ncccc2C(=O)N1Cc1ccc(-c2ccccc2-c2nn[nH]n2)cc1 (centres undefined) | > 10000 | –
CCCCC1c2ncccc2C(=O)N1Cc1ccc(-c2ccccc2-c2nn[nH]n2)cc1 (centres undefined) | 95 | Papp A→B (in vitro): 5.6 ×10⁻⁶ cm/s
CCCc1nc2c(C)cc(C)nc2n1Cc1ccc(-c2ccccc2-c2nn[nH]n2)cc1 | 0.8 | –
CCc1nc2c(C)cc(C)nc2n1Cc1ccc(-c2ccccc2-c2nnn[nH]2)cc1 [L-158809] | 0.4 | –
CCCCn1nc(OCc2ccc(-c3ccccc3-c3nn[nH]n3)cc2)c2cccnc2c1=O | 114 | –
O=c1c2cccnc2n(Cc2ccc(-c3ccccc3-c3nn[nH]n3)cc2)n1Cc1ccccc1 | > 3000 | –
CC(C)CCn1c(=O)c2cccnc2n1Cc1ccc(-c2ccccc2-c2nnn[nH]2)cc1 | 124 | –

Continued, in another order:

IC50 [1] [nM] | Structure (SMILES) | further results
291 | CCCn1c(=O)c2ccc(C)nc2n1Cc1ccc(-c2ccccc2-c2nnn[nH]2)cc1 | –
258 | CCCCn1c(=O)c2ccc(OC)nc2n1Cc1ccc(-c2ccccc2-c2nnn[nH]2)cc1 | –
168 | CCCCn1c(=O)c2ccc(Cl)nc2n1Cc1ccc(-c2ccccc2-c2nnn[nH]2)cc1 | –
39 | CCCCn1c2ncccc2c(=O)n1Cc1ccc(-c2ccccc2-c2nnn[nH]2)cc1 | Papp A→B (in vitro): 3.6 ×10⁻⁶ cm/s; Kb [2]: 14.8 nM
600 | CCCCn1c(=O)c2ccc(N3CCOCC3)nc2n1Cc1ccc(-c2ccccc2-c2nnn[nH]2)cc1 | –
1870 | CCn1c(=O)c2ccc(C)nc2n1Cc1ccc(-c2ccccc2-c2nnn[nH]2)cc1 | –
124 | CCCCn1c(=O)c2ccc(NC)nc2n1Cc1ccc(-c2ccccc2-c2nn[nH]n2)cc1 | –
53 | CCCCCn1c(=O)c2cccnc2n1Cc1ccc(-c2ccccc2-c2nnn[nH]2)cc1 | –
461 | CCCCn1c2nc(Cl)ccc2c(=O)n1Cc1ccc(-c2ccccc2-c2nn[nH]n2)cc1 | –
598 | CCCCn1c(=O)c2ccccc2n1Cc1ccc(-c2ccccc2-c2nnn[nH]2)cc1 | –
76 | CCCCn1c(=O)c2cc(Cl)cnc2n1Cc1ccc(-c2ccccc2-c2nnn[nH]2)cc1 | Papp A→B (in vitro): 10.8 ×10⁻⁶ cm/s
70 | CCCCn1c(=O)c2cc(F)cnc2n1Cc1ccc(-c2ccccc2-c2nnn[nH]2)cc1 | –
81 | CCCCn1c(=O)c2ccc(C)nc2n1Cc1ccc(-c2ccccc2-c2nnn[nH]2)cc1 | –
108 | CCCn1c(=O)c2cccnc2n1Cc1ccc(-c2ccccc2-c2nnn[nH]2)cc1 | –
427 | CCCCn1c(=O)c2cc(F)c(Cl)nc2n1Cc1ccc(-c2ccccc2-c2nnn[nH]2)cc1 | –

— ChEMBL document CHEMBL1145541 (J Med Chem, 2008)
